Source: ChEMBL document CHEMBL5316381, “Discovery of [1,2,3]Triazolo[4,5-c]quinoline Derivatives as a New Class of Ataxia-Telangiectasia Mutated Kinase Inhibitors” (ACS Med Chem Lett, 2023)
The source made the active and inactive calls. The calls are words filed in the database; no cut-off is given here.

Columns and labels:
[1] = biological target: T1, Serine-protein kinase ATM (Homo sapiens, UniProt Q13315); experiment: Inhibition of ATM (unknown origin) using GST-cMyc-p53 as substrate incubated for 30 mins in presence of Mg/ATP mix by HTRF-based analysis
T1 sequence (Q13315 whole entry): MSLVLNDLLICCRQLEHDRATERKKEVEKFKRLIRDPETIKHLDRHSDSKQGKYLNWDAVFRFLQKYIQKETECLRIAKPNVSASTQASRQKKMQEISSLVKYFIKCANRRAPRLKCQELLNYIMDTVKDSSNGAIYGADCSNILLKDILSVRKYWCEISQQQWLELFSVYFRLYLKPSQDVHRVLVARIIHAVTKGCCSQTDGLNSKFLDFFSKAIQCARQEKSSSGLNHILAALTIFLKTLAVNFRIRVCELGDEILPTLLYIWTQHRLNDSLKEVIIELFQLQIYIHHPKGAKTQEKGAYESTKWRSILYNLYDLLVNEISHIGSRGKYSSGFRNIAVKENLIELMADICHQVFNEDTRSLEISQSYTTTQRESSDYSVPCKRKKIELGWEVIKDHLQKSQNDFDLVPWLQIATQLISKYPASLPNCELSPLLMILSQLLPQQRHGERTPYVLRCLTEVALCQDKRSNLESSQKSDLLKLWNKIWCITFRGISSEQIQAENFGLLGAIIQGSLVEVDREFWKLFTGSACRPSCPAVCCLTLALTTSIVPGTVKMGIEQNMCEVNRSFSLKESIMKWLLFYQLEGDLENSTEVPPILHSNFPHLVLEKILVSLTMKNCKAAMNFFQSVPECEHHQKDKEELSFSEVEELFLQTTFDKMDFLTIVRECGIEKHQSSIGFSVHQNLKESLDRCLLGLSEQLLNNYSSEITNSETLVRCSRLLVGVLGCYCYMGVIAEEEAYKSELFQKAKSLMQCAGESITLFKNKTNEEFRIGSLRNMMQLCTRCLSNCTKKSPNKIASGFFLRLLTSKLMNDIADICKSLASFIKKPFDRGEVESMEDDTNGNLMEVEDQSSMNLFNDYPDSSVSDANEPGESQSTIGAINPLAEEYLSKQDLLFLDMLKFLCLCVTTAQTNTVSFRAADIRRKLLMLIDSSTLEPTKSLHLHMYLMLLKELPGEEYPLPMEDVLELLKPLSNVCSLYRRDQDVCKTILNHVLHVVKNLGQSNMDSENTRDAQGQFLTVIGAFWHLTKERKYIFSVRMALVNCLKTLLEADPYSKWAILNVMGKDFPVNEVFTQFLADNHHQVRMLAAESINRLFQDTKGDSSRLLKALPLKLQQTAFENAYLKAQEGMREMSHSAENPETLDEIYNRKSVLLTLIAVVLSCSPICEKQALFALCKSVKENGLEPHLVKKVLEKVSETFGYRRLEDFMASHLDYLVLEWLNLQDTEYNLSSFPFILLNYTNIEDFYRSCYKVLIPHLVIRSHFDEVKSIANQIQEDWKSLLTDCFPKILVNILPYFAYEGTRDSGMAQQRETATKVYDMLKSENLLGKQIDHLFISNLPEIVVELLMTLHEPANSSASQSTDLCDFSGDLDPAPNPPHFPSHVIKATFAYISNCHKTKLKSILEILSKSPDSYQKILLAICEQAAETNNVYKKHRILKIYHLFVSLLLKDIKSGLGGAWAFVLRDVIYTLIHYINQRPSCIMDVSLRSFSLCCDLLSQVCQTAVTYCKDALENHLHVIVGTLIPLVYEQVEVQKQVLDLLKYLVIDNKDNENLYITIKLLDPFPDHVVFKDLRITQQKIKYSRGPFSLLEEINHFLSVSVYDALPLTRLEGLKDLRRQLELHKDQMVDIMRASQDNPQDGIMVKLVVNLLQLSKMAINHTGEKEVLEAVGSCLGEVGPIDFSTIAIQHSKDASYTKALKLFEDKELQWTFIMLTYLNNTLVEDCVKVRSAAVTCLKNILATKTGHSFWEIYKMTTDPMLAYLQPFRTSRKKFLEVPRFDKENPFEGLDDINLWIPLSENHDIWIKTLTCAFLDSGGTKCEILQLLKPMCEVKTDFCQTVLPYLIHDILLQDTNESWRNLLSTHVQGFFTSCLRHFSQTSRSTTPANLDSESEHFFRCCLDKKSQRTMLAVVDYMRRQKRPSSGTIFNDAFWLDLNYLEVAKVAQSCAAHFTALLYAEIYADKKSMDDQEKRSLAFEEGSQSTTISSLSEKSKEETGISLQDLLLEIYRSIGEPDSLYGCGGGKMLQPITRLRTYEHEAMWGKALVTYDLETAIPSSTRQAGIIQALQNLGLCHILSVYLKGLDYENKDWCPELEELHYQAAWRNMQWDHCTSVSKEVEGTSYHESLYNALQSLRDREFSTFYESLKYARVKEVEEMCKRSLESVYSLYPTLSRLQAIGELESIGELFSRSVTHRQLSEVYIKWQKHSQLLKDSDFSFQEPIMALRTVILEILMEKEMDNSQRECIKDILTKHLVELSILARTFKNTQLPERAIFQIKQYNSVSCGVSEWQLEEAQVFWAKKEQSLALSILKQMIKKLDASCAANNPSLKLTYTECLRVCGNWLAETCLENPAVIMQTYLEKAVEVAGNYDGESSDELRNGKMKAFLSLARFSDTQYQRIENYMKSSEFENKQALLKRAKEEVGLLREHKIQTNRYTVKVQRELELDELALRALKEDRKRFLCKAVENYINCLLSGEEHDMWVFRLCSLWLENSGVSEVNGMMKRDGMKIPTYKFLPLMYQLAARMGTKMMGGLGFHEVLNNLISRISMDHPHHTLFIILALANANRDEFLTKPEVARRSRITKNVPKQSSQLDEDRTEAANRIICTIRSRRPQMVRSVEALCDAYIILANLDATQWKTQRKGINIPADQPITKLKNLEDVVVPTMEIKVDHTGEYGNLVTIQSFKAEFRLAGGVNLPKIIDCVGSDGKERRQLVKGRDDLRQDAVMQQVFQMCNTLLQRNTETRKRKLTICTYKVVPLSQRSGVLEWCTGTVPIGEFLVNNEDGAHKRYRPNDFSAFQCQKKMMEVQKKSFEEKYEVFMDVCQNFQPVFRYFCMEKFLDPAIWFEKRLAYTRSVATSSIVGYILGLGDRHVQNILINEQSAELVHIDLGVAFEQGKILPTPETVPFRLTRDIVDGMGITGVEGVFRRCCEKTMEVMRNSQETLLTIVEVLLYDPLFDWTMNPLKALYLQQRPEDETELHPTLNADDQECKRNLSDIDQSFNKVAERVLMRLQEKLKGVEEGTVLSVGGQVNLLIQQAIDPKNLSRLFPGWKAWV

[2] = tested on: SW-620; experiment: Antiproliferative activity against human SW620 cells assessed as reduction in colony formation at 27 nM measured after 14 days by crystal violet staining based microscopic analysis; format: functional, cell-based; details: time 14.0 day
[3] = tested on: SW-620; experiment: Radiosensitizing activity against human SW620 cells assessed as reduction in colony formation at 27 nM incubated after 14 days in the presence of 1.5 Gy irradiation by crystal violet staining based analysis; format: functional, cell-based; details: time 14.0 day
[4] = biological target: Serine/threonine-protein kinase Chk2 (Homo sapiens) (UniProt O96017); experiment: Inhibition of Chk2 phosphorylation in human SW620 cells with IR-induced DNA damage assessed as fold change in phosphorylated Chk2 protein level at 27 nM in the presence of 1.5 Gy irradiation by Western blot analysis relative to control; format: cell-based
Sequence of Serine/threonine-protein kinase Chk2 (Homo sapiens) (O96017 whole entry): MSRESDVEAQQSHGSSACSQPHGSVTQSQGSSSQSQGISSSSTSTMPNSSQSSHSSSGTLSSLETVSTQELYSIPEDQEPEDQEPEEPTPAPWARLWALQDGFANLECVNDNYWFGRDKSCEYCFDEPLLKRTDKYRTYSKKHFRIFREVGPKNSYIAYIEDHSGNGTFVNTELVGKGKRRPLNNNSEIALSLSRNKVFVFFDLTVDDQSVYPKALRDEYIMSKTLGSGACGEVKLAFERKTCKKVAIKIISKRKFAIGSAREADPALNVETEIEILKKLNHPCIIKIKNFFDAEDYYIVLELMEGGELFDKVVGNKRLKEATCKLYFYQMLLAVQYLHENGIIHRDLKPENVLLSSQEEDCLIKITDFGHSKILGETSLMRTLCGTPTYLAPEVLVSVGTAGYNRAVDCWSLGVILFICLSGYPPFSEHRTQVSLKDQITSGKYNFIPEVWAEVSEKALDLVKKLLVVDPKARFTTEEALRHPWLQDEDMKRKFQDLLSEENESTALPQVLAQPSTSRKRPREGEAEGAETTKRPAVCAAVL

[5] = biological target: Serine/threonine-protein kinase Chk2 (Homo sapiens) (UniProt O96017); experiment: Inhibition of CPT-11 induced Chk2 phosphorylation in human SW620 cells assessed as fold change in phosphorylated chk2 protein level at 30 nM by SDS-PAGE based Western blot analysis relative to control; format: cell-based
[6] = biological target: Serine/threonine-protein kinase Chk2 (Homo sapiens) (UniProt O96017); experiment: Inhibition of CPT-11 induced Chk2 phosphorylation in human SW620 cells assessed as fold change in phosphorylated chk2 protein level at 1 nM by SDS-PAGE based Western blot analysis relative to control; format: cell-based
[7] = biological target: T1, Serine-protein kinase ATM; experiment: Inhibition of ATM phosphorylation in human SW620 cells with IR-induced DNA damage assessed as fold change in phosphorylated ATM protein level at 83 nM in the presence of 3 Gy irradiation by Western blot analysis relative to control; format: cell-based
[8] = biological target: T1, Serine-protein kinase ATM; experiment: Inhibition of ATM phosphorylation in human SW620 cells with IR-induced DNA damage assessed as fold change in phosphorylated ATM protein level at 250 nM in the presence of 3 Gy irradiation by Western blot analysis relative to control; format: cell-based
[9] = biological target: T1, Serine-protein kinase ATM; experiment: Inhibition of ATM phosphorylation in human SW620 cells with IR-induced DNA damage assessed as fold change in phosphorylated ATM protein level at 27 nM in the presence of 3 Gy irradiation by Western blot analysis relative to control; format: cell-based
[10] = tested on: SW-620; experiment: Radiosensitizing activity against human SW620 cells assessed as reduction in colony formation at 9 nM incubated after 14 days in the presence of 3 Gy irradiation by crystal violet staining based analysis; format: functional, cell-based; details: time 14.0 day
[11] = tested on: SW-620; experiment: Antiproliferative activity against human SW620 cells assessed as reduction in colony formation at 9 nM measured after 14 days by crystal violet staining based microscopic analysis; format: functional, cell-based; details: time 14.0 day
[12] = tested on: SW-620; experiment: Radiosensitizing activity against human SW620 cells assessed as reduction in colony formation at 9 nM incubated after 14 days in the presence of 1.5 Gy irradiation by crystal violet staining based analysis; format: functional, cell-based; details: time 14.0 day
[13] = biological target: Serine/threonine-protein kinase Chk2 (Homo sapiens) (UniProt O96017); experiment: Inhibition of Chk2 phosphorylation in human SW620 cells with IR-induced DNA damage assessed as fold change in phosphorylated Chk2 protein level at 9 nM in the presence of 1.5 Gy irradiation by Western blot analysis relative to control; format: cell-based
[14] = biological target: T1, Serine-protein kinase ATM; experiment: Inhibition of ATM phosphorylation in human SW620 cells with IR-induced DNA damage assessed as fold change in phosphorylated ATM protein level at 3 nM in the presence of 3 Gy irradiation by Western blot analysis relative to control; format: cell-based
[15] = biological target: Serine/threonine-protein kinase Chk2 (Homo sapiens) (UniProt O96017); experiment: Inhibition of CPT-11 induced Chk2 phosphorylation in human SW620 cells assessed as fold change in phosphorylated chk2 protein level at 3 nM by SDS-PAGE based Western blot analysis relative to control; format: cell-based
[16] = biological target: Serine/threonine-protein kinase Chk2 (Homo sapiens) (UniProt O96017); experiment: Inhibition of CPT-11 induced Chk2 phosphorylation in human SW620 cells by SDS-PAGE based Westernblot analysis; format: cell-based
[17] = biological target: Serine/threonine-protein kinase Chk2 (Homo sapiens) (UniProt O96017); experiment: Inhibition of Chk2 phosphorylation in human SW620 cells with IR-induced DNA damage assessed as fold change in phosphorylated Chk2 protein level at 3 nM in the presence of 3 Gy irradiation by Western blot analysis relative to control; format: cell-based
[18] = biological target: Serine/threonine-protein kinase Chk2 (Homo sapiens) (UniProt O96017); experiment: Inhibition of Chk2 phosphorylation in human SW620 cells with IR-induced DNA damage assessed as fold change in phosphorylated Chk2 protein level at 250 nM in the presence of 1.5 Gy irradiation by Western blot analysis relative to control; format: cell-based
[19] = biological target: Serine/threonine-protein kinase Chk2 (Homo sapiens) (UniProt O96017); experiment: Inhibition of Chk2 phosphorylation in human SW620 cells with IR-induced DNA damage assessed as fold change in phosphorylated Chk2 protein level at 83 nM in the presence of 1.5 Gy irradiation by Western blot analysis relative to control; format: cell-based
[20] = biological target: Serine/threonine-protein kinase Chk2 (Homo sapiens) (UniProt O96017); experiment: Inhibition of Chk2 phosphorylation in human SW620 cells with IR-induced DNA damage assessed as fold change in phosphorylated Chk2 protein level at 3 nM in the presence of 1.5 Gy irradiation by Western blot analysis relative to control; format: cell-based
[21] = tested on: SW-620; experiment: Radiosensitizing activity against human SW620 cells assessed as reduction in colony formation at 27 nM incubated after 14 days in the presence of 3 Gy irradiation by crystal violet staining based analysis; format: functional, cell-based; details: time 14.0 day
[22] = biological target: Serine/threonine-protein kinase Chk2 (Homo sapiens) (UniProt O96017); experiment: Inhibition of Chk2 phosphorylation in human SW620 cells with IR-induced DNA damage assessed as fold change in phosphorylated Chk2 protein level at 9 nM in the presence of 3 Gy irradiation by Western blot analysis relative to control; format: cell-based
[23] = biological target: Serine/threonine-protein kinase Chk2 (Homo sapiens) (UniProt O96017); experiment: Inhibition of Chk2 phosphorylation in human SW620 cells with IR-induced DNA damage assessed as fold change in phosphorylated Chk2 protein level at 83 nM in the presence of 3 Gy irradiation by Western blot analysis relative to control; format: cell-based
[24] = biological target: Serine/threonine-protein kinase Chk2 (Homo sapiens) (UniProt O96017); experiment: Inhibition of CPT-11 induced Chk2 phosphorylation in human SW620 cells assessed as fold change in phosphorylated chk2 protein level at 10 nM by SDS-PAGE based Western blot analysis relative to control; format: cell-based
[25] = biological target: Serine/threonine-protein kinase Chk2 (Homo sapiens) (UniProt O96017); experiment: Inhibition of Chk2 phosphorylation in human SW620 cells with IR-induced DNA damage assessed as fold change in phosphorylated Chk2 protein level at 250 nM in the presence of 3 Gy irradiation by Western blot analysis relative to control; format: cell-based
[26] = biological target: Serine/threonine-protein kinase Chk2 (Homo sapiens) (UniProt O96017); experiment: Inhibition of Chk2 phosphorylation in human SW620 cells with IR-induced DNA damage assessed as fold change in phosphorylated Chk2 protein level at 27 nM in the presence of 3 Gy irradiation by Western blot analysis relative to control; format: cell-based
[27] = biological target: T1, Serine-protein kinase ATM; experiment: Inhibition of ATM phosphorylation in human SW620 cells with IR-induced DNA damage assessed as fold change in phosphorylated ATM protein level at 9 nM in the presence of 3 Gy irradiation by Western blot analysis relative to control; format: cell-based

CC[C@@H](c1ccccc1)n1nnc2cnc3ccc(-c4ccc(N)nc4)cc3c21
IC50 [1]: 79 nM

C[C@H](c1ccccc1)n1nnc2cnc3ccc(-c4cnc(N)nc4)cc3c21
IC50 [1]: 15 nM

C[C@H](c1ccccc1)n1nnc2cnc3ccc(-c4ccc(OCCCCN(C)C)nc4)cc3c21
IC50 [1]: 10 nM

C[C@@H](c1cccc(F)c1)n1nnc2cnc3ccc(-c4ccc(N)nc4)cc3c21
IC50 [1]: 53 nM

C[C@H](c1ccccc1)n1nnc2cnc3ccc(-c4ccc(F)cc4)cc3c21
IC50 [1]: 174 nM

Cc1ccc(-c2ccc3ncc4nnn([C@H](C)c5ccccc5)c4c3c2)cn1
IC50 [1]: 35 nM

C[C@H](c1ccccc1)n1nnc2cnc3ccc(-c4ccc(N5CCN(C)CC5)nc4)cc3c21
IC50 [1]: 6 nM

C[C@@H](c1ccccc1)n1nnc2cnc3ccc(-c4ccc(N)nc4)cc3c21
IC50 [1]: 45 nM

C[C@H](c1ccccc1)n1nnc2cnc3ccc(-c4ccc(OCCN(C)C)nc4)cc3c21
IC50 [1]: 19 nM

C[C@H](c1ccccc1)n1nnc2cnc3ccc(-c4ccc(O)nc4)cc3c21
IC50 [1]: 25 nM

C[C@H](c1ccccc1)n1nnc2cnc3ccc(-c4ccc(N5CCCC5)nc4)cc3c21
IC50 [1]: 71 nM

C[C@H](c1ccccc1)n1nnc2cnc3ccc(-c4ccc(OCCCN5CCN(C)CC5)nc4)cc3c21
IC50 [1]: 2 nM

CC[C@H](c1ccccc1)n1nnc2cnc3ccc(-c4ccc(N)nc4)cc3c21
IC50 [1]: 9 nM

C[C@H](c1ccccc1)n1nnc2cnc3ccc(-c4ccc(F)nc4)cc3c21
IC50 [1]: 57 nM

COc1ccc(-c2ccc3ncc4nnn([C@H](C)c5ccccc5)c4c3c2)cn1
IC50 [1]: 13 nM

C[C@H](c1ccccc1)n1nnc2cnc3ccc(-c4ccc(O)cc4)cc3c21
IC50 [1]: 52 nM

CC(=O)Nc1ccc(-c2ccc3ncc4nnn([C@H](C)c5ccccc5)c4c3c2)cn1
IC50 [1]: 13 nM

C[C@H](c1cccc(F)c1)n1nnc2cnc3ccc(-c4ccc(N)nc4)cc3c21
IC50 [1]: 4 nM

C[C@H](c1ccccc1)n1nnc2cnc3ccc(-c4ccc(C#N)nc4)cc3c21
IC50 [1]: 167 nM

CNCCCOc1ccc(-c2ccc3ncc4nnn([C@H](C)c5ccccc5)c4c3c2)cn1
IC50 [1]: 166 nM

C[C@H](c1ccccc1)n1nnc2cnc3ccc(-c4ccc(N)cc4)cc3c21
IC50 [1]: 15 nM

Nc1ccc(-c2ccc3ncc4nnn(Cc5ccccc5)c4c3c2)cn1
IC50 [1]: 8 nM

C[C@@H](c1ccc(F)cc1)n1nnc2cnc3ccc(-c4ccc(N)nc4)cc3c21
IC50 [1]: 250 nM

C[C@H](c1ccc(F)cc1)n1nnc2cnc3ccc(-c4ccc(N)nc4)cc3c21
IC50 [1]: 4 nM

C[C@H](c1ccccc1)n1nnc2cnc3ccc(-c4ccc(Cl)nc4)cc3c21
IC50 [1]: 31 nM

C[C@H](c1ccccc1)n1nnc2cnc3ccc(-c4cccnc4)cc3c21
IC50 [1]: 9 nM

C[C@H](c1ccccc1)n1nnc2cnc3ccc(-c4ccnc(N)c4)cc3c21
IC50 [1]: 22 nM

CC(C)n1c(=O)n(C)c2cnc3cc(F)c(-c4ccc(OCCCN5CCCCC5)nc4)cc3c21
Activity [2]: inactive
Activity [3]: Active
fold change (FC) [4]: 1.2
fold change (FC) [5]: 0.56
fold change (FC) [6]: 2.5
fold change (FC) [7]: 0.8
fold change (FC) [8]: 0.61
fold change (FC) [9]: 1
Activity [10]: Active
Activity [11]: inactive
Activity [12]: Active
fold change (FC) [13]: 0.92
fold change (FC) [14]: 1.36
fold change (FC) [15]: 1.9
inhibition [16]: Dose-Dependent Effect
fold change (FC) [17]: 4.2
fold change (FC) [18]: 0.58
fold change (FC) [19]: 1
fold change (FC) [20]: 0.92
Activity [21]: Active
fold change (FC) [22]: 1.8
fold change (FC) [23]: 0.35
fold change (FC) [24]: 1.6
fold change (FC) [25]: 0.25
fold change (FC) [26]: 0.6
fold change (FC) [27]: 1.34

COc1ccc([C@H](C)n2nnc3cnc4ccc(-c5ccc(N)nc5)cc4c32)cc1
IC50 [1]: 103 nM

Cn1nnc2cnc3ccc(-c4ccc(N)nc4)cc3c21
IC50 [1]: 243 nM

CC(C)n1nnc2cnc3ccc(-c4ccc(N)nc4)cc3c21
IC50 [1]: 20 nM

C[C@H](c1ccccc1)n1nnc2cnc3ccc(-c4ccc(OCCCN5CCCCC5)nc4)cc3c21
IC50 [1]: 2 nM

C[C@H](c1ccccc1)n1nnc2cnc3ccc(-c4ccc(C(F)(F)F)nc4)cc3c21
IC50 [1]: 225 nM

C[C@H](c1ccccc1)n1nnc2cnc3ccc(-c4cnc(N(C)C)nc4)cc3c21
IC50 [1]: 482 nM

C[C@H](c1ccccc1)n1nnc2cnc3ccc(-c4ccc(OCCCN5CCCC5)nc4)cc3c21
IC50 [1]: 2 nM

COc1cccc([C@@H](C)n2nnc3cnc4ccc(-c5ccc(N)nc5)cc4c32)c1
IC50 [1]: 5 nM

C[C@H](c1ccccc1)n1nnc2cnc3ccc(-c4ccc(N)nc4)cc3c21
IC50 [1]: 2 nM
